Laboratory results from patent US8592629B2, “Sulfonamide derivatives as Nav 1.7 inhibitors” (Pfizer Limited, priority 2010, dated 2013).

Legend:
[1] = target: T1, Nav1.7 (or SCN9A) channel (Homo sapiens, UniProt Q15858); experiment: Nav1.7 (hSCN9A) block in HEK cells, PatchXpress 7000 automated electrophysiology, estimated IC50 (EIC50); assay type: cell-based; conditions: PatchXpress assay; HEK cells stably transfected with hSCN9A, voltage-clamped at V1/2 of inactivation
T1 construct: expressed in transfected cells
T1 sequence (Q15858 whole entry): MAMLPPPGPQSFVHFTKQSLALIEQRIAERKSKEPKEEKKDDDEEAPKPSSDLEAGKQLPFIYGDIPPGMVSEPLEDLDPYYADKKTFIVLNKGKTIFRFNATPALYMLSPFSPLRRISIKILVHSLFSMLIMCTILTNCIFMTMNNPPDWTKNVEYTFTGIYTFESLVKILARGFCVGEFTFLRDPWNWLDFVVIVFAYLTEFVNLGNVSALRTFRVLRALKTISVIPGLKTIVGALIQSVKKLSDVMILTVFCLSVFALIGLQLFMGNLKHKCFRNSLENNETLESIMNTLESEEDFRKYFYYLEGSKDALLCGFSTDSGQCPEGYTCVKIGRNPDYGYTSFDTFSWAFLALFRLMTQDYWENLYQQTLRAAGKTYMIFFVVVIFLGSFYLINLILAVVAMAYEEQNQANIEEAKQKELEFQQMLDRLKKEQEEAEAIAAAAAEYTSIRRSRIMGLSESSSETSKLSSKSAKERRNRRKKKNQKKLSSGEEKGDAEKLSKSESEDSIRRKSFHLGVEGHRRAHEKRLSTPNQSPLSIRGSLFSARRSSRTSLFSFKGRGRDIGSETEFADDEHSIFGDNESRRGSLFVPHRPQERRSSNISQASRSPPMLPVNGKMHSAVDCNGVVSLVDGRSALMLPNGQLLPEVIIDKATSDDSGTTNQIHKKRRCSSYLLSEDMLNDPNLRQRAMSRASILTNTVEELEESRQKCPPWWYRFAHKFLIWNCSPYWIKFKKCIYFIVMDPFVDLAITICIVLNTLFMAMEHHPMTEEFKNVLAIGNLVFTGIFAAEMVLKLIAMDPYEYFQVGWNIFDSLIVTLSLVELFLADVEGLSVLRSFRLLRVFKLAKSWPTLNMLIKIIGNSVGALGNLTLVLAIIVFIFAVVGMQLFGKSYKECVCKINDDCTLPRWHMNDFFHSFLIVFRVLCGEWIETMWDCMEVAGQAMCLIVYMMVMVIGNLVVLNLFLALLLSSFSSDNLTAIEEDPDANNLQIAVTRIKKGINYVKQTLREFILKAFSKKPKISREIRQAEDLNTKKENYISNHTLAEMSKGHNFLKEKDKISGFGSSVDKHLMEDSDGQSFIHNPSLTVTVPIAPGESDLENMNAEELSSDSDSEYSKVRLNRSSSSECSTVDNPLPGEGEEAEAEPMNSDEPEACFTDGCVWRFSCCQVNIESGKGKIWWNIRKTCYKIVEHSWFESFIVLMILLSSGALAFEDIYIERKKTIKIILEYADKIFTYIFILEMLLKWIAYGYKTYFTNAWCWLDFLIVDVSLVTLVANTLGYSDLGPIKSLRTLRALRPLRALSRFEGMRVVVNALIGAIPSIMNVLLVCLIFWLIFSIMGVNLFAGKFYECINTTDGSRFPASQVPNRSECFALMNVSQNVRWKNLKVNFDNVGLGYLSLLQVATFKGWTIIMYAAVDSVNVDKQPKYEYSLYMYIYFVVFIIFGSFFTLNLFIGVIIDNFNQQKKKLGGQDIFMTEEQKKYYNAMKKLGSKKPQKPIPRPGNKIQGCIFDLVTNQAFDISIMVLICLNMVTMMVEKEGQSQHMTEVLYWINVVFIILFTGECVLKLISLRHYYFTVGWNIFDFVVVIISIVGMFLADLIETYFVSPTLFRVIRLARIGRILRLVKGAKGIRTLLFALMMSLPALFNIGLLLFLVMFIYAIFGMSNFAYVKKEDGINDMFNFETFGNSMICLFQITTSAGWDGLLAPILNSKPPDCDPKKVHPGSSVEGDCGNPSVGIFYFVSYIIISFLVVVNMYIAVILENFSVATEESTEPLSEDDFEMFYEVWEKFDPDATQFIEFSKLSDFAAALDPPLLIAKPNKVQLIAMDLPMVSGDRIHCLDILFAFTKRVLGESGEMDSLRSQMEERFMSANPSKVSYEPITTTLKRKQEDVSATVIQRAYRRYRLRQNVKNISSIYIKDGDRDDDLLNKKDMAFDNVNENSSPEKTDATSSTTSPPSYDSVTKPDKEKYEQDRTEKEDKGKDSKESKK
Method in brief: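 Stable hSCN9A HEK cells voltage-clamped at empirically determined inactivation V1/2 (8 s prepulse), current activated by 20 msec step to 0 mV; % inhibition from current before vs after compound. EIC50 derived from single-point data as concentration × (100−%inhibition)/%inhibition, excluding <20% and >80% inhibition; PatchXpress unless stated.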

[2] = target: T1, Nav1.7 (or SCN9A) channel; experiment: Nav1.7 (hSCN9A) block in HEK cells, Ionworks Quattro automated electrophysiology; assay type: cell-based; conditions: Ionworks Quattro assay (IW); HEK cells stably transfected with hSCN9A; read-out: Nav1.7 EIC50 (IW)
Description: The ability of the compounds of formula (I) to block the Nav1.7 (or SCN9A) channel were measured using the assay described below.
Human Embryonic Kidney (HEK) cells were transfected with an hSCN9A construct using lipofectamine reagent (Invitrogen), using standard techniques. Cells stably expressing the hSCN9A constructs were identified by their resistance to G-418 (400 μg/ml). Clones were screened for expression using the whole-cell voltage-clamp technique.
HEK cells stably transfected with hSCN9A were maintained in DMEM medium supplemented with 10% heat-inactivated fetal bovine serum and 400 μg/ml G-418 in an incubator at 37° C. with a humidified atmosphere of 10% CO2. For HTS, cells were harvested from flasks by trypsinization and replated in an appropriate multi-well plate (typically 96 or 384 wells/plate) such that confluence would be achieved within 24 hours of plating. For electrophysiological studies, cells were removed from the culture flask by brief trypsinization and re-plated at low density onto glass cover slips. Cells were typically used for electrophysiological experiments within 24 to 72 hours after plating.
Electrophysiological assays were also conducted using the lonworks Quattro automated electrophysiological platform (Molecular Devices Corp). Intracellular and extracellular solutions were as described above with the following changes, 120 μg/ml amphotericin was added to the intracellular solution to perforate the membrane and allow electrical access to the cells. hSCN9A cells were grown and harvested as for PatchXpress and cells were resuspended in extracellular solution at a concentration of 1×10^6 cells/ml. The onboard liquid handling facility of the Ionworks Quattro was used for dispensing cells and application of test compounds. A voltage protocol was then applied that comprised of a voltage step to fully inactivate the sodium channels, followed by a brief hyperpolarized recovery period to allow partial recovery from inactivation for unblocked sodium channels, followed by a test depolarized voltage step to assess magnitude of inhibition by test compound. Compound effect was determined based on current amplitude difference between the pre-compound addition and post-compound addition scans.
Compounds of the Examples were tested in the assays described above and found to have the Nav1.7 EIC50 (μM) values specified in the table below. All data are derived from the PatchXpress assay unless explicitly stated otherwise.

With `CNc1ncc(Oc2cc(F)c(C(=O)NS(C)(=O)=O)cc2F)cc1Cl` [Example 137, 4-{[5-chloro-6-(methylamino)pyridin-3-yl]oxy}-2,5-difluoro-N-(methylsulfonyl)benzamide] the IC50 [1] was 3.2 µM.
For `CS(=O)(=O)NC(=O)c1cc(F)c(Oc2cnc(NC3CCCC3)c(Cl)c2)cc1F` [Example 138, 4-{[5-chloro-6-(cyclopentylamino)pyridin-3-yl]oxy}-2,5-difluoro-N-(methylsulfonyl)benzamide], the IC50 [1] was 0.085 µM.
`CN(c1ncc(Oc2cc(F)c(C(=O)NS(C)(=O)=O)cc2F)cc1Cl)C1CCOC1` (stereo not drawn) [Example 139, 4-({5-chloro-6-[methyl(tetrahydrofuran-3-yl)amino]pyridin-3-yl}oxy)-2,5-difluoro-N-(methylsulfonyl)benzamide] gave an IC50 [1] of 2.6 µM.
For `CS(=O)(=O)NC(=O)c1cc(F)c(Oc2cnc(NC3CC3)c(Cl)c2)cc1F` [Example 140, 4-{[5-chloro-6-(cyclopropylamino)pyridin-3-yl]oxy}-2,5-difluoro-N-(methylsulfonyl)benzamide], the IC50 [1] was 1.6 µM.
Work on `CN(CC1CC1)c1ncc(Oc2cc(F)c(C(=O)NS(C)(=O)=O)cc2F)cc1Cl` [Example 141, 4-({5-chloro-6-[(cyclopropylmethyl)(methyl)amino]pyridin-3-yl}oxy)-2,5-difluoro-N-(methylsulfonyl)benzamide] yielded an IC50 [1] of 0.27 µM.
With `CS(=O)(=O)NC(=O)c1cc(F)c(Oc2cnc(N3CCCCC3)c(Cl)c2)cc1F` [Example 142, 4-[(5-chloro-6-piperidin-1-ylpyridin-3-yl)oxy]-2,5-difluoro-N-(methylsulfonyl)benzamide] the IC50 [1] was 0.17 µM.
Molecule `COCCNc1ncc(Oc2cc(F)c(C(=O)NS(C)(=O)=O)cc2F)cc1Cl` [Example 143, 4-({5-chloro-6-[(2-methoxyethyl)amino]pyridin-3-yl}oxy)-2,5-difluoro-N-(methylsulfonyl)benzamide] has an IC50 [1] greater than 1 µM.
For `CS(=O)(=O)NC(=O)c1cc(F)c(Oc2cnc(N[C@@H]3CCC[C@H]3F)c(Cl)c2)cc1F` [Example 144, 4-[(5-chloro-6-{[(1R,2R)-2-fluorocyclopentyl]amino}pyridin-3-yl)oxy]-2,5-difluoro-N-(methylsulfonyl)benzamide], the IC50 [1] was 0.49 µM.
With `CS(=O)(=O)NC(=O)c1cc(F)c(Oc2cnc(NC3CCCOC3)c(Cl)c2)cc1F` (stereo not drawn) [Example 145, 4-{[5-chloro-6-(tetrahydro-2H-pyran-3-ylamino)pyridin-3-yl]oxy}-2,5-difluoro-N-(methylsulfonyl)benzamide] the IC50 [1] was 0.81 µM.
For `CS(=O)(=O)NC(=O)c1cc(F)c(Oc2cnc(N3CCCC3)c(Cl)c2)cc1F` [Example 146, 4-[(5-chloro-6-pyrrolidin-1-ylpyridin-3-yl)oxy]-2,5-difluoro-N-(methylsulfonyl)benzamide], the IC50 [1] was 0.076 µM.
`CCN(CC)c1ncc(Oc2cc(F)c(C(=O)NS(C)(=O)=O)cc2F)cc1Cl` [Example 150, 4-{[5-chloro-6-(diethylamino)pyridin-3-yl]oxy}-2,5-difluoro-N-(methylsulfonyl)benzamide] gave an IC50 [1] of 0.22 µM.
Work on `CCc1cn2nc(Oc3cc(F)c(C(=O)NS(C)(=O)=O)cc3F)ccc2n1` [Example 180, 4-[(2-ethylimidazo[1,2-b]pyridazin-6-yl)oxy]-2,5-difluoro-N-(methylsulfonyl)benzamide] yielded an IC50 [2] of 232 µM.
Molecule `CS(=O)(=O)NC(=O)c1cc(F)c(Oc2ncccc2C(F)(F)F)cc1F` [Example 182, 2,5-difluoro-N-(methylsulfonyl)-4-{[3-(trifluoromethyl)pyridin-2-yl]oxy}benzamide] has an IC50 [1] greater than 3 µM.
`Cc1cc(Oc2cc(F)c(C(=O)NS(C)(=O)=O)cc2F)nc(C)n1` [Example 183, 4-[(2,6-dimethylpyrimidin-4-yl)oxy]-2,5-difluoro-N-(methylsulfonyl)benzamide] gave an IC50 [2] greater than 323 µM.
`CS(=O)(=O)NC(=O)c1cc(F)c(Oc2ccc(Cl)cn2)cc1F` [Example 184, 4-[(5-chloropyridin-2-yl)oxy]-2,5-difluoro-N-(methylsulfonyl)benzamide] gave an IC50 [1] of 4.4 µM.
In the case of `Cc1cc(C#N)nc(Oc2cc(F)c(C(=O)NS(C)(=O)=O)cc2F)c1` [Example 185, 4-[(6-cyano-4-methylpyridin-2-yl)oxy]-2,5-difluoro-N-(methylsulfonyl)benzamide], the IC50 [2] is reported as greater than 323 µM.
`Cc1cc(N(C)C)nc(Oc2cc(F)c(C(=O)NS(C)(=O)=O)cc2F)n1` [Example 186, 4-{[4-(dimethylamino)-6-methylpyrimidin-2-yl]oxy}-2,5-difluoro-N-(methylsulfonyl)benzamide] gave an IC50 [2] greater than 323 µM.
Work on `Cc1nc2ccccc2nc1Oc1cc(F)c(C(=O)NS(C)(=O)=O)cc1F` [Example 187, 2,5-difluoro-4-[(3-methylquinoxalin-2-yl)oxy]-N-(methylsulfonyl)benzamide] yielded an IC50 [1] greater than 3 µM.
Work on `Cc1nccnc1Oc1cc(F)c(C(=O)NS(C)(=O)=O)cc1F` [Example 189, 2,5-difluoro-4-[(3-methylpyrazin-2-yl)oxy]-N-(methylsulfonyl)benzamide] yielded an IC50 [2] of 232 µM.
Work on `COc1ccc2nc(Oc3cc(F)c(C(=O)NS(C)(=O)=O)cc3F)ccc2c1` [Example 190, 2,5-difluoro-4-[(6-methoxyquinolin-2-yl)oxy]-N-(methylsulfonyl)benzamide] yielded an IC50 [2] of 29.3 µM.
`CC(C)c1nccnc1Oc1cc(F)c(C(=O)NS(C)(=O)=O)cc1F` [Example 193, 2,5-difluoro-4-[(3-isopropylpyrazin-2-yl)oxy]-N-(methylsulfonyl)benzamide] showed an IC50 [1] of 2.1 µM.
With `CS(=O)(=O)NC(=O)c1cc(F)c(Oc2ccc(C(F)(F)F)cn2)cc1F` [Example 194, 2,5-difluoro-N-(methylsulfonyl)-4-{[5-(trifluoromethyl)pyridin-2-yl]oxy}benzamide] the IC50 [1] was 3.1 µM.
`CS(=O)(=O)NC(=O)c1cc(F)c(Oc2nncc3ccccc23)cc1F` [Example 195, 2,5-difluoro-N-(methylsulfonyl)-4-(phthalazin-1-yloxy)benzamide] showed an IC50 [2] greater than 323 µM.
With `Cc1cc2ccccc2nc1Oc1cc(F)c(C(=O)NS(C)(=O)=O)cc1F` [Example 196, 2,5-difluoro-4-[(3-methylquinolin-2-yl)oxy]-N-(methylsulfonyl)benzamide] the IC50 [1] was greater than 3 µM.
Molecule `CCCc1ncc(F)c(Oc2cc(F)c(C(=O)NS(C)(=O)=O)cc2F)n1` [Example 197, 2,5-difluoro-4-[(5-fluoro-2-propylpyrimidin-4-yl)oxy]-N-(methylsulfonyl)benzamide] has an IC50 [2] greater than 323 µM.
In the case of `CS(=O)(=O)NC(=O)c1cc(F)c(Oc2ncc(Cl)cn2)cc1F` [Example 198, 4-[(5-chloropyrimidin-2-yl)oxy]-2,5-difluoro-N-(methylsulfonyl)benzamide], the IC50 [2] is reported as greater than 323 µM.
With `Cc1cc(Oc2cc(F)c(C(=O)NS(C)(=O)=O)cc2F)ncn1` [Example 199, 2,5-difluoro-4-[(6-methylpyrimidin-4-yl)oxy]-N-(methylsulfonyl)benzamide] the IC50 [2] was greater than 323 µM.
With `COc1cc(Oc2cc(F)c(C(=O)NS(C)(=O)=O)cc2F)ncn1` [Example 200, 2,5-difluoro-4-[(6-methoxypyrimidin-4-yl)oxy]-N-(methylsulfonyl)benzamide] the IC50 [2] was 173 µM.
In the case of `CS(=O)(=O)NC(=O)c1ccc(Oc2ccc3ccccc3n2)c(C#N)c1` [Example L34, 3-cyano-N-(methylsulfonyl)-4-(quinolin-2-yloxy)benzamide], the IC50 [2] is reported as 222 µM.
`CS(=O)(=O)NC(=O)c1ccc(Oc2cnc3ccccc3c2)c(C#N)c1` [Example L35, 3-cyano-N-(methylsulfonyl)-4-(quinolin-3-yloxy)benzamide] was tested, and the IC50 [2] was 50.2 µM.
